Reference: the supplement of paper PMC10883282
± gives the standard deviation of the averaged measurements.

Columns and labels:
Assay in all cases: relative viability vs DMSO control (72 h) (fraction); higher = more viable cells
[1] = tested on: HT1080
In short: (§1)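 ATPLite readings, expressed as percent growth and averaged over up to triplicate wells, provided relative viability. Before reading, sarcoma cell lines seeded in 384-well plates to reach 80–90% confluence received 2.5 µl of serially diluted compound after 24 h, from source plates of 10 mM to 0.0002 mM. Plates were held 72 h at 37 °C, 5% CO2, with 0.1% DMSO as vehicle and a 5 µM positive control. The data were rescaled to 1 for full and 0 for none.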

[2] = tested on: KHOS-NP
In short: as §1

[3] = tested on: RD
In short: as §1

[4] = tested on: VA-ES-BJ
In short: as §1

[5] = tested on: RD-ES
In short: as §1

O=S(=O)(c1cccc2cnccc12)N1CCCNCC1 [Fasudil]
relative viability ([1]; 0.00051 µM): 1.03 ± 0.018 | relative viability ([1]; 0.00152 µM): 1.03 ± 0.02 | relative viability ([1]; 0.00457 µM): 1.066 ± 0.01 | relative viability ([1]; 0.01372 µM): 1.04 ± 0.02 | relative viability ([1]; 0.04115 µM): 1.03 ± 0.049 | relative viability ([1]; 0.1235 µM): 1.03 ± 0.017 | relative viability ([1]; 0.3704 µM): 1.06 ± 0.053 | relative viability ([1]; 1.111 µM): 1.06 ± 0.016 | relative viability ([1]; 3.333 µM): 1.07 ± 0.046 | relative viability ([1]; 10 µM): 1.06 ± 0.048 | relative viability ([2]; 0.00051 µM): 1.03 ± 0.039 | relative viability ([2]; 0.00152 µM): 1.04 ± 0.023 | relative viability ([2]; 0.00457 µM): 1.029 ± 0.0094 | relative viability ([2]; 0.01372 µM): 1.02 ± 0.015 | relative viability ([2]; 0.04115 µM): 1.01 ± 0.025 | relative viability ([2]; 0.1235 µM): 1.03 ± 0.022 | relative viability ([2]; 0.3704 µM): 1.02 ± 0.021 | relative viability ([2]; 1.111 µM): 1.05 ± 0.021 | relative viability ([2]; 3.333 µM): 1.01 ± 0.037 | relative viability ([2]; 10 µM): 1.03 ± 0.021 | relative viability ([3]; 0.00051 µM): 0.969 ± 0.023 | relative viability ([3]; 0.00152 µM): 0.985 ± 0.03 | relative viability ([3]; 0.00457 µM): 0.952 ± 0.027 | relative viability ([3]; 0.01372 µM): 0.978 ± 0.028 | relative viability ([3]; 0.04115 µM): 0.963 ± 0.029 | relative viability ([3]; 0.1235 µM): 0.956 ± 0.028 | relative viability ([3]; 0.3704 µM): 0.961 ± 0.062 | relative viability ([3]; 1.111 µM): 0.999 ± 0.061 | relative viability ([3]; 3.333 µM): 1.05 ± 0.067 | relative viability ([3]; 10 µM): 1.06 ± 0.07 | relative viability ([4]; 0.00051 µM): 0.961 ± 0.044 | relative viability ([4]; 0.00152 µM): 0.962 ± 0.025 | relative viability ([4]; 0.00457 µM): 0.974 ± 0.02 | relative viability ([4]; 0.01372 µM): 0.984 ± 0.027 | relative viability ([4]; 0.04115 µM): 0.945 ± 0.021 | relative viability ([4]; 0.1235 µM): 0.964 ± 0.035 | relative viability ([4]; 0.3704 µM): 0.981 ± 0.036 | relative viability ([4]; 1.111 µM): 0.985 ± 0.034 | relative viability ([4]; 3.333 µM): 0.978 ± 0.042 | relative viability ([4]; 10 µM): 0.95 ± 0.022 | relative viability ([5]; 0.00051 µM): 0.957 ± 0.051 | relative viability ([5]; 0.00152 µM): 0.9873 ± 0.0042 | relative viability ([5]; 0.00457 µM): 0.98 ± 0.012 | relative viability ([5]; 0.01372 µM): 0.979 ± 0.012 | relative viability ([5]; 0.04115 µM): 0.9688 ± 0.006 | relative viability ([5]; 0.1235 µM): 0.98 ± 0.021 | relative viability ([5]; 0.3704 µM): 1.009 ± 0.0076 | relative viability ([5]; 1.111 µM): 1.005 ± 0.0033 | relative viability ([5]; 3.333 µM): 1.01 ± 0.024 | relative viability ([5]; 10 µM): 1 ± 0.023

O=C(Nc1nc2cccc(-c3ccc(CN4CCS(=O)(=O)CC4)cc3)n2n1)C1CC1 [Filgotinib]
relative viability ([1]; 0.00017 µM): 1.11 ± 0.031 | relative viability ([1]; 0.00051 µM): 1.127 ± 0.01 | relative viability ([1]; 0.00152 µM): 1.066 ± 0.0048 | relative viability ([1]; 0.00457 µM): 1.06 ± 0.012 | relative viability ([1]; 0.01372 µM): 1.08 ± 0.011 | relative viability ([1]; 0.04115 µM): 1.1 ± 0.025 | relative viability ([1]; 0.1235 µM): 1.08 ± 0.036 | relative viability ([1]; 0.3704 µM): 1.12 ± 0.021 | relative viability ([1]; 1.111 µM): 1.09 ± 0.085 | relative viability ([1]; 3.333 µM): 1.13 ± 0.097 | relative viability ([1]; 10 µM): 1.12 ± 0.021 | relative viability ([2]; 0.00017 µM): 1.09 ± 0.019 | relative viability ([2]; 0.00051 µM): 1.12 ± 0.015 | relative viability ([2]; 0.00152 µM): 1.1 ± 0.037 | relative viability ([2]; 0.00457 µM): 1.101 ± 0.011 | relative viability ([2]; 0.01372 µM): 1.1 ± 0.027 | relative viability ([2]; 0.04115 µM): 1.1 ± 0.03 | relative viability ([2]; 0.1235 µM): 1.085 ± 0.0096 | relative viability ([2]; 0.3704 µM): 1.085 ± 0.0076 | relative viability ([2]; 1.111 µM): 1.08 ± 0.043 | relative viability ([2]; 3.333 µM): 1.1 ± 0.027 | relative viability ([2]; 10 µM): 1.09 ± 0.069 | relative viability ([3]; 0.00017 µM): 1.02 ± 0.053 | relative viability ([3]; 0.00051 µM): 1.04 ± 0.062 | relative viability ([3]; 0.00152 µM): 1.04 ± 0.066 | relative viability ([3]; 0.00457 µM): 1.1 ± 0.037 | relative viability ([3]; 0.01372 µM): 1.07 ± 0.042 | relative viability ([3]; 0.04115 µM): 1.1 ± 0.065 | relative viability ([3]; 0.1235 µM): 1.07 ± 0.086 | relative viability ([3]; 0.3704 µM): 1.1 ± 0.049 | relative viability ([3]; 1.111 µM): 1.1 ± 0.038 | relative viability ([3]; 3.333 µM): 1.01 ± 0.011 | relative viability ([3]; 10 µM): 0.846 ± 0.061 | relative viability ([4]; 0.00017 µM): 1.05 ± 0.018 | relative viability ([4]; 0.00051 µM): 1.05 ± 0.053 | relative viability ([4]; 0.00152 µM): 1.05 ± 0.021 | relative viability ([4]; 0.00457 µM): 1.01 ± 0.022 | relative viability ([4]; 0.01372 µM): 1.01 ± 0.013 | relative viability ([4]; 0.04115 µM): 0.997 ± 0.011 | relative viability ([4]; 0.1235 µM): 1.01 ± 0.032 | relative viability ([4]; 0.3704 µM): 1.01 ± 0.023 | relative viability ([4]; 1.111 µM): 0.976 ± 0.017 | relative viability ([4]; 3.333 µM): 0.954 ± 0.016 | relative viability ([4]; 10 µM): 0.851 ± 0.014 | relative viability ([5]; 0.00017 µM): 0.932 ± 0.05 | relative viability ([5]; 0.00051 µM): 0.886 ± 0.03 | relative viability ([5]; 0.00152 µM): 0.957 ± 0.033 | relative viability ([5]; 0.00457 µM): 0.946 ± 0.0095 | relative viability ([5]; 0.01372 µM): 0.928 ± 0.022 | relative viability ([5]; 0.04115 µM): 0.944 ± 0.014 | relative viability ([5]; 0.1235 µM): 0.949 ± 0.02 | relative viability ([5]; 0.3704 µM): 0.957 ± 0.014 | relative viability ([5]; 1.111 µM): 0.978 ± 0.037 | relative viability ([5]; 3.333 µM): 0.924 ± 0.043 | relative viability ([5]; 10 µM): 0.925 ± 0.013

COc1cc(Nc2ncc(F)c(Nc3ccc4c(n3)N(COP(=O)(O)O)C(=O)C(C)(C)O4)n2)cc(OC)c1OC [Fostamatinib]
relative viability ([1]; 0.00017 µM): 1.06 ± 0.032 | relative viability ([1]; 0.00051 µM): 1.07 ± 0.045 | relative viability ([1]; 0.00152 µM): 1.08 ± 0.02 | relative viability ([1]; 0.00457 µM): 1.07 ± 0.021 | relative viability ([1]; 0.01372 µM): 1.06 ± 0.03 | relative viability ([1]; 0.04115 µM): 1.06 ± 0.037 | relative viability ([1]; 0.1235 µM): 1.09 ± 0.022 | relative viability ([1]; 0.3704 µM): 1.101 ± 0.0083 | relative viability ([1]; 1.111 µM): 1.06 ± 0.023 | relative viability ([1]; 3.333 µM): 0.937 ± 0.025 | relative viability ([1]; 10 µM): 0.658 ± 0.029 | relative viability ([2]; 0.00017 µM): 1.09 ± 0.026 | relative viability ([2]; 0.00051 µM): 1.08 ± 0.035 | relative viability ([2]; 0.00152 µM): 1.1 ± 0.013 | relative viability ([2]; 0.00457 µM): 1.091 ± 0.0094 | relative viability ([2]; 0.01372 µM): 1.07 ± 0.033 | relative viability ([2]; 0.04115 µM): 1.089 ± 0.0083 | relative viability ([2]; 0.1235 µM): 1.09 ± 0.011 | relative viability ([2]; 0.3704 µM): 1.05 ± 0.02 | relative viability ([2]; 1.111 µM): 0.98 ± 0.04 | relative viability ([2]; 3.333 µM): 0.64 ± 0.014 | relative viability ([2]; 10 µM): 0.278 ± 0.021 | relative viability ([3]; 0.00017 µM): 1.09 ± 0.017 | relative viability ([3]; 0.00051 µM): 1.1 ± 0.03 | relative viability ([3]; 0.00152 µM): 1.11 ± 0.069 | relative viability ([3]; 0.00457 µM): 1.1 ± 0.014 | relative viability ([3]; 0.01372 µM): 1.11 ± 0.048 | relative viability ([3]; 0.04115 µM): 1.13 ± 0.066 | relative viability ([3]; 0.1235 µM): 1.07 ± 0.054 | relative viability ([3]; 0.3704 µM): 0.991 ± 0.04 | relative viability ([3]; 1.111 µM): 0.96 ± 0.023 | relative viability ([3]; 3.333 µM): 0.535 ± 0.011 | relative viability ([3]; 10 µM): 0.457 ± 0.015 | relative viability ([4]; 0.00017 µM): 1.05 ± 0.045 | relative viability ([4]; 0.00051 µM): 1.06 ± 0.037 | relative viability ([4]; 0.00152 µM): 1.06 ± 0.012 | relative viability ([4]; 0.00457 µM): 1.04 ± 0.027 | relative viability ([4]; 0.01372 µM): 1.04 ± 0.021 | relative viability ([4]; 0.04115 µM): 1.06 ± 0.043 | relative viability ([4]; 0.1235 µM): 1.01 ± 0.026 | relative viability ([4]; 0.3704 µM): 0.888 ± 0.04 | relative viability ([4]; 1.111 µM): 0.727 ± 0.18 | relative viability ([4]; 3.333 µM): 0.366 ± 0.0078 | relative viability ([4]; 10 µM): 0.164 ± 0.025 | relative viability ([5]; 0.00017 µM): 0.9556 ± 0.0089 | relative viability ([5]; 0.00051 µM): 0.964 ± 0.026 | relative viability ([5]; 0.00152 µM): 0.9726 ± 0.0074 | relative viability ([5]; 0.00457 µM): 0.958 ± 0.011 | relative viability ([5]; 0.01372 µM): 0.972 ± 0.011 | relative viability ([5]; 0.04115 µM): 0.9768 ± 0.0063 | relative viability ([5]; 0.1235 µM): 0.943 ± 0.026 | relative viability ([5]; 0.3704 µM): 0.792 ± 0.02 | relative viability ([5]; 1.111 µM): 0.715 ± 0.022 | relative viability ([5]; 3.333 µM): 0.484 ± 0.0056 | relative viability ([5]; 10 µM): 0.144 ± 0.0043
